# According to patent US20030054047A1 (priority 2001, published 2003):
# Tests used:
# Influenza virus A/90-15 [1] = test: microbe, parasite or virus in culture; format: cell-based, Influenza virus type A (H3N2) strain Jifeng A/90-15
# Influenza virus B/97-13 [2] = test: Preventive assay: MDCK cells pre-treated 24 hours, then infected, influenza B; format: cell-based, Influenza virus type B strain Jifeng B/97-13; conditions: drug added 24 hours before infection
# Description: (§1) Preventive assay: Cell culture plate pre-treated with different concentrations of sample solutions for 24 hours, washed out the drugs, then infected with viruses, incubated, washed, observed and calculated the inhibition % as above.
# Influenza virus B/97-13 [3] = test: microbe, parasite or virus in culture; format: cell-based, Influenza virus type B strain Jifeng B/97-13
# Influenza virus A/90-15 [4] = test: Preventive assay: MDCK cells pre-treated 24 hours, then infected, influenza A; format: cell-based, Influenza virus type A (H3N2) strain Jifeng A/90-15; conditions: drug added 24 hours before infection
# Description: as §1
compound,measurement,setting,value
"NC(=O)c1ncn([C@@H]2O[C@H](CO)[C@@H](O)[C@H]2O)n1 [Ribavirin, 1-β-D-ribafuranosyl-1,2,4-triazole-3-carboxamide]",Inhibition of virus CPE (in words),Influenza virus A/90-15 [1],effective
same,IC50,"Influenza virus A/90-15 [1]; unidentified influenza virus, MDCK, read-out: Influenza virus A/90-15 IC50",70 ± 40 µg/mL
same,Activity on pretreatment for 24 hours (in words),Influenza virus B/97-13 [2],effective
same,Inhibition of virus CPE (in words),Influenza virus B/97-13 [3],effective
same,IC50,"Influenza virus B/97-13 [3]; unidentified influenza virus, MDCK, read-out: Influenza virus B/97-13 IC50",60 ± 30 µg/mL
same,Activity on pretreatment for 24 hours (in words),Influenza virus A/90-15 [4],effective
